Measured values published in the NIST ThermoML archive (doi:10.1021/acs.jced.5b00922).

Experiment: mn = molality of the nth substance listed, in mol/kg
Conditions: 100 kPa, Liquid; for viscosity: Capillary tube (Ostwald / Ubbelohde) method; for mass density: Pycnometric method

NCCCNCCCN [bis(3-aminopropyl)amine] + O
Conditions	mass density [kg/m3]	viscosity [mPa·s]
298 K, m1 = 0.102	997.56	0.95
298 K, m1 = 0.313	997.47	1.07
298 K, m1 = 0.537	997.32	1.23
298 K, m1 = 0.773	997.12	1.41
298 K, m1 = 1.024	996.9	1.57
298 K, m1 = 1.291	996.71	1.74
303 K, m1 = 0.102	996.21	0.84
303 K, m1 = 0.313	996.12	0.95
303 K, m1 = 0.537	995.98	1.09
303 K, m1 = 0.773	995.83	1.24
303 K, m1 = 1.024	995.67	1.39
303 K, m1 = 1.291	995.53	1.55
308 K, m1 = 0.102	994.48	0.76
308 K, m1 = 0.313	994.37	0.85
308 K, m1 = 0.537	994.17	0.98
308 K, m1 = 0.773	994	1.1
308 K, m1 = 1.024	993.82	1.24
308 K, m1 = 1.291	993.64	1.38
313 K, m1 = 0.102	992.55	0.69
313 K, m1 = 0.313	992.43	0.77
313 K, m1 = 0.537	992.27	0.88
313 K, m1 = 0.773	992.1	0.99
313 K, m1 = 1.024	991.92	1.11
313 K, m1 = 1.291	991.73	1.23
318 K, m1 = 0.102	990.18	0.61
318 K, m1 = 0.313	989.94	0.69
318 K, m1 = 0.537	989.71	0.8
318 K, m1 = 0.773	989.48	0.9
318 K, m1 = 1.024	989.3	1
318 K, m1 = 1.291	989.09	1.11
323 K, m1 = 0.102	987.58	0.55
323 K, m1 = 0.313	987.36	0.63
323 K, m1 = 0.537	987.13	0.73
323 K, m1 = 0.773	986.93	0.81
323 K, m1 = 1.024	986.74	0.9
323 K, m1 = 1.291	986.55	0.98
